Data published in US7294640B2, “Mitotic kinesin inhibitors” (Merck & Co., Inc., priority 2004, dated 2007).

Biological target: T1, GST-MCAK fusion protein (Homo sapiens, UniProt Q99661)
T1 construct: The GST-MCAK fusion protein was purchased Cytoskeleton (cat. #MK01); fused on or other part: GST tag (N-terminal, by the vendor's product)
Experiment: MCAK ATPase in vitro assay
Assay type: biochemical
Conditions: GST-MCAK 100 nM, 1 mM sodium ATP, 2 μM microtubules, RT 50 min, 5% DMSO
Experimental: V. MCAK ATPase in Vitro Assay
Reagents: The GST-MCAK fusion protein was purchased Cytoskeleton (cat. #MK01). Tubulin from bovine brain was purchased from Cytoskeleton (HTS-grade), BSA from Sigma (cat. # 3059). chloramphenicol from Boehringer Mannheim (cat. # 634433), ampicillin from Fisher Biotech (cat. # BP1760-25) and Paclitaxel from Cytoskeleton (cat. # TXD01)
Microtubule preparation: For the preparation of microtubules, purified tubulin (>97% MAP-free) at 1 mg/ml was polymerized at 37° C. in the presence of 10 μM paclitaxel, 1 mM DTT, 1 mM GTP in BRB80 buffer (80 mM K-PIPES, 1 mM EGTA, 1 mM MgCl2 at pH 6.8). The resulting microtubules were separated from non-polymerized tubulin by ultracentrifugation and removal of the supernatant. The pellet, containing the microtubules, was gently resuspended in 1×BRB 80 containing 10 μM paclitaxel, 1 mM DTT, 50 μg/ml ampicillin, 5 μg/ml chloramphenicol in BRB80.
MCAK ATPase assay: GST-MCAK at 100 nM was incubated with 1 mM sodium ATP, 2 μM microtubules with 2 μM paclitaxel (concentration refers to tubulin dimers), and inhibitor at RT for 50 min in reaction buffer (80 mM K-PIPES, 1 mM K-EGTA, 2 mM MgCl2, 1 mM DTT, and 100 μg/ml BSA, pH 6.9). Compounds were dissolved in DMSO, and the final DMSO concentration in the reaction was 5%. The reaction was terminated with a 2-fold dilution of the reaction with 2× stop buffer (50 mM EDTA/1.8 M KCl). The free phosphate from the ATP hydrolysis reaction was measured via a quinaldine red/ammonium molybdate assay by adding 1.5 volumes of quench C within 24 hrs of addition of stop buffer. (Cogan, E. B., Birrell, G. B., Griffith, O. H. (1999) Analytical Biochemistry 271, p 29). Quench C was prepared by adding 1 volume of quench B (12.3 mM ammonium molybdate tetrahydrate in 1.15 M sulfuric acid) to 2 volumes of quench A (0.1 mg/ml quinaldine red, 0.14% polyvinyl alcohol). The plate was incubated for 5 min at room temperature, and the absorbance of the phosphomolybdate complex was measured at 540 nm.

T1 sequence (Q99661 258-588 limits assumed): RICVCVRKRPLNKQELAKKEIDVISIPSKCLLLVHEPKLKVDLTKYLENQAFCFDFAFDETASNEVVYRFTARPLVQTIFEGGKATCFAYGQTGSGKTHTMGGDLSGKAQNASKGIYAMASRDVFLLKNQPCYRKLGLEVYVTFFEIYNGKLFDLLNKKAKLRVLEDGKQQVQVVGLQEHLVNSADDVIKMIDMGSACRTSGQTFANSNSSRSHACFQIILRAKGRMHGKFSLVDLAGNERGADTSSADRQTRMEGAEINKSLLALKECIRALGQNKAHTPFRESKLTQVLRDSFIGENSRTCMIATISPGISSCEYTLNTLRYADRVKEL

| IC50 | Structure (SMILES) |
| --- | --- |
| ≤ 50 µM | CC(c1ccccc1)c1nc(-c2ccc([N+](=O)[O-])cc2)cs1 (centres unmarked) [Compound 1-5, 4-(4-nitrophenyl)-2-(1-phenylethyl)-1,3-thiazole] |
| ≤ 50 µM | c1ccc(C2(c3nc(-c4cccnc4)cs3)CC2)cc1 [Compound 1-10, 3-[2-(1-phenylcyclopropyl)-1,3-thiazol-4-yl]pyridine] |
| ≤ 50 µM | N#Cc1ccc(-c2csc(C3(c4c(F)cccc4F)CC3)n2)cc1 [Compound 1-15, 4-{2-[1-(2,6-difluorophenyl)cyclopropyl]-1,3-thiazol-4-yl}benzonitrile] |
| ≤ 50 µM | N#Cc1ccc(-c2csc(C3(c4ccccc4)CC3)n2)cn1 [Compound 2-2, 5-[2-(1-phenylcyclopropyl)-1,3-thiazol-4-yl]pyridine-2-carbonitrile] |
| ≤ 50 µM | [O-][n+]1ccc(-c2csc(C3(c4ccccc4)CC3)n2)cc1 [Compound 2-3, 4-[2-(1-phenylcyclopropyl)-1,3-thiazol-4-yl]-1lambda~5~pyridin-1-ol] |
| ≤ 50 µM | Oc1ccc(-c2csc(C3(c4ccccc4)CC3)n2)cc1O [Compound 3-2, 4-(3,4-dihydroxyphenyl)-2-(1-phenylcyclopropyl)-1,3-thiazole] |
| ≤ 50 µM | Oc1cnccc1-c1csc(C2(c3ccccc3)CC2)n1 [Compound 3-3, 4-[2-(1-phenylcyclopropyl)-1,3-thiazol-4-yl]pyridin-3-ol] |
| ≤ 50 µM | Oc1ccc(-c2csc(C3(c4ccccc4)CC3)n2)cc1 [Compound 3-4, 4-[2-(1-phenylcyclopropyl)-1,3-thiazol-4-yl]phenol] |
| ≤ 50 µM | Oc1cccc(-c2csc(C3(c4ccccc4)CC3)n2)c1 [Compound 3-5, 3-[2-(1-phenylcyclopropyl)-1,3-thiazol-4-yl]phenol] |
| ≤ 50 µM | OCc1cccc(-c2csc(C3(c4ccccc4)CC3)n2)c1 [Compound 5-1, {3-[2-(1-phenylcyclopropyl)-1,3-thiazol-4-yl]phenyl}methanol] |
| ≤ 50 µM | Clc1cccc(C2(c3nc(-c4ccncc4)cs3)CC2)c1 [Compound 9-10, 4-{2-[1-(3-chlorophenyl)cyclopropyl]-1,3-thiazol-4-yl}pyridine] |
| ≤ 50 µM | Fc1ccccc1C1(c2nc(-c3ccncc3)cs2)CC1 [Compound 9-11, 4-{2-[1-(2-fluorophenyl)cyclopropyl]-1,3-thiazol-4-yl}pyridine] |
| ≤ 50 µM | Clc1cc(-c2csc(C3(c4ccccc4)CC3)n2)ccn1 [Compound 9-13, 2-chloro-4-[2-(1-phenylcyclopropyl)-1,3-thiazol-4-yl]pyridine] |
| ≤ 50 µM | Cc1cccc(C2(c3nc(-c4ccncc4)cs3)CC2)c1 [Compound 9-14, 4-{2-[1-(3-methylphenyl)cyclopropyl]-1,3-thiazol-4-yl}pyridine] |
